Laboratory results from patent US3970651A, “Crystalline cephalosporin derivative” (priority 1974, dated 1976).
Converted amounts (≈) assume the structure as drawn. “And” between values parts separate entries of the source, which are not always exact repeats. Equal values may be shown once. Read-outs that look alike come from different tables or passages of the source.

How the values were obtained:
[1] = test system: S. aureus 209P (A.T.C.C. 6538P); assay: Bioassay, turbidometric; assay type: cell-based
[2] = Water solubility; assay type: physicochemical; conditions: in water at 23° C.
[3] = in vivo; conditions: dog, po, 30 mg/kg
Protocol: Three beagle dogs (mean weight of 8.2 ± 0.4 kg.) were administered 200 mesh 7-[D-α-amino-α-(p-hydroxyphenyl)acetamido]-3-(1,2,3-triazol-5-ylthiomethyl)-3-cephem-4-carboxylic acid propylene glycolate (bioassay 820 mcg./mgm.) orally at doses of 30 mg. of activity/kg. in hard gelatin capsules. All doses and concentrations reported herein are in terms of the amphoteric material and were corrected for differences in biopotency.

[4] = test system: bacterial infections; assay: In vitro antibacterial potency and spectrum; assay type: cell-based
[5] = test system: bacterial infections; assay: In vivo antibacterial activity
[6] = for Behaviour when suspended in water: aqueous suspension
[7] = Heat stability / loss of bioactivity of the solid on storage at elevated temperatures
[8] = allowance made for inert propylene glycol

For N[C@@H](C(=O)NC1C(=O)N2C(C(=O)O)=C(CSc3c[nH]nn3)CSC12)c1ccc(O)cc1 (stereo partly drawn) [BL-S640 propylene glycolate, 7-[D-α-amino-α-(p-hydroxyphenyl)acetamido]-3-(1,2,3-triazol-5-ylthiomethyl)-3-cephem-4-carboxylic acid 1,2-propylene glycolate], the bioassay ([1]; 200 mesh lot dosed to dogs) was 820 mcg./mgm, the assigned potency ([1]; bioassay standard, 16.7% 1,2-propylene glycol, 0.3% water) was 820 mcg./mgm and the “potency of composite blend” value ([1]; capsule blend) was 834 µg/mg. The Bio-assay ([1]; listed as 1,2-propylene glycolate) was 800 to 850 µg/mg, the Bio-assay ([1]; listed as propylene glycolate) was 750 to 790 µg/mg and 800 to 860 µg/mg and the solubility [2] was ~10000 µg/mL (≈ 21.6 mM). The concentration at 0.08 h [3] was 40 ng/mL, the concentration at 0.25 h [3] was 300 ± 100 ng/mL and the concentration at 0.5 h [3] was 5900 ± 2000 ng/mL. It also gave a concentration at 1.05 h [3] of 8400 ng/mL, a concentration at 1.5 h [3] of 17700 ± 2000 ng/mL and a concentration at 2 h [3] of 18700 ± 900 ng/mL. It also gave a concentration at 3 h [3] of 13700 ± 1200 ng/mL, a concentration at 4 h [3] of 8400 ± 1300 ng/mL and a concentration at 6 h [3] of 3200 ± 400 ng/mL. The concentration at 8 h [3] was 1600 ± 200 ng/mL, the half-life [3] was ~1.36 h and the “In vitro potency and spectrum of activity” value ([4]; in vitro, versus Ser. No. 318,340) was “exhibits the potency and spectrum of activity reported in the above-referenced application Ser. No. 318,340 in a qualitative sense and usually also quantitatively except when it is possible to observe slightly less activity due to its content of the biologically inert propylene glycol”. The In vivo results ([5]; dosed on a potency basis in terms of the zwitterion) was “substantially the same”, the “Behaviour when suspended in water” value ([6]; listed as propylene glycolate) was “does not lose biological activity, lose crystallinity, suspend unevenly, oil, clump, settle out or become tacky” and the “Loss of bioactivity on storage as a solid” value ([7]; 56°C., one month, usual stringent test conditions) was “no more than ten”. For the same compound, the degraded at 24 h ([7]; solid) was < 6%, the degraded at 48 h ([7]; solid) was < 12% and the degraded at 720 h ([7]; solid) was < 10%.
With N[C@@H](C(=O)NC1C(=O)N2C(C(=O)O)=C(CSc3cnn[nH]3)CS[C@H]12)c1ccc(O)cc1 (stereo partly drawn) [BL-S640, 7-[D-α-amino-α-(p-hydroxyphenyl)acetamido]-3-(1,2,3-triazol-5-ylthiomethyl)-3-cephem-4-carboxylic acid] the “Degradation in water at alkaline pH” value ([6]; pH 7) was “degrades very rapidly, as by loss of the thiol moiety”.
In the case of C=CC.N[C@@H](C(=O)NC1C(=O)N2C(C(=O)O)=C(CSc3cnn[nH]3)CS[C@H]12)c1ccc(O)cc1.O=C(O)CO (stereo partly drawn) [BL-S640 mono-propylene glycolate, 7-[D-α-amino-α-(p-hydroxyphenyl)acetamido]-3-(1,2,3-triazol-5-ylthiomethyl)-3-cephem-4-carboxylic acid mono-propylene glycolate], the Bio-assay [1] is reported as 865 µg/mg, the calculated potency ([1]; 15.6% 1,2-propylene glycol, 0.3% water) is reported as 865 µg/mg and the “Potency and spectrum in vivo and in vitro versus the zwitterion product” value [4, 8] is reported as “substantially the same potency and spectrum in vivo and in vitro”. For the same compound, the “Potency and spectrum in vivo versus the zwitterion product” value [5, 8] was “substantially the same potency and spectrum in vivo and in vitro” and the “Behaviour when suspended in water” value [6] was “does not lose biological activity or crystallinity and does not oil, suspend unevenly, clump, settle out or become tacky”.
In the case of CO.N[C@@H](C(=O)NC1C(=O)N2C(C(=O)O)=C(CSc3cnn[nH]3)CS[C@H]12)c1ccc(O)cc1 (stereo partly drawn) [BL-S640 methanolate, 7-[D-α-amino-α-(p-hydroxyphenyl)acetamido]-3-(1,2,3-triazol-5-ylthiomethyl)-3-cephem-4-carboxylic acid Methanolate], the Bio-assay [1] is reported as 850 to 900 µg/mg.
With N[C@@H](C(=O)NC1C(=O)N2C(C(=O)O)=C(CSc3c[nH]nn3)CSC12)c1ccc(O)cc1 (stereo partly drawn) [BL-S640 mono-methanolate] the Bio-assay [1] was 930-960 units/mg.
In the case of N[C@@H](C(=O)NC1C(=O)N2C(C(=O)O)=C(CSc3c[nH]nn3)CSC12)c1ccc(O)cc1 (stereo partly drawn) [ethanolate], the “Behaviour when suspended in water” value [6] is reported as “gradually lost its ethanol to change into a solid tacky form which lost crystallinity, did not suspend evenly and gummed in time”.
